How the values were obtained:
Type in all cases: biochemical
[1] = target: T1, Plasmin (Homo sapiens, UniProt P00747); assay: Plasmin chromogenic substrate assay (S2251)
T1 construct: purchased Quadratech 810655
Protocol: (§1) Briefly, uPA (high molecular weight uPA Calbiochem, Cat. 627081), tpA (Quadratech, Cat. 821157) or plasmin (Quadratech, Cat. 810655) were diluted-in buffer comprising 0.5M tris HCl, 0.1% tween 20 pH 8.3. Urokinase activity was measured in a final volume of 100 μl containing 0.4 mM S2444 in assay buffer by following the increase in absorbance at 405 nm. The activity of tPA was measured in a final volume of 100 μl, containing 230 nM Spectrozyrne tPA substrate (American Diagnostica, Cat. 444L) and 40 μg per ml tPA stimulator (fibrin, Quadratech, Cat. 821116) and following the increase in absorbance at 405 nm. Plasmin activity was measured in a final volume of 100 μl containing 0.66 mM S2251, and following the increase in absorbance at 405 nm.

[2] = target: T2, tPA (Homo sapiens, UniProt P00750); assay: tPA chromogenic substrate assay (Spectrozyme tPA, fibrin stimulator)
T2 construct: purchased Quadratech 821157
T2 sequence (P00750 36-562): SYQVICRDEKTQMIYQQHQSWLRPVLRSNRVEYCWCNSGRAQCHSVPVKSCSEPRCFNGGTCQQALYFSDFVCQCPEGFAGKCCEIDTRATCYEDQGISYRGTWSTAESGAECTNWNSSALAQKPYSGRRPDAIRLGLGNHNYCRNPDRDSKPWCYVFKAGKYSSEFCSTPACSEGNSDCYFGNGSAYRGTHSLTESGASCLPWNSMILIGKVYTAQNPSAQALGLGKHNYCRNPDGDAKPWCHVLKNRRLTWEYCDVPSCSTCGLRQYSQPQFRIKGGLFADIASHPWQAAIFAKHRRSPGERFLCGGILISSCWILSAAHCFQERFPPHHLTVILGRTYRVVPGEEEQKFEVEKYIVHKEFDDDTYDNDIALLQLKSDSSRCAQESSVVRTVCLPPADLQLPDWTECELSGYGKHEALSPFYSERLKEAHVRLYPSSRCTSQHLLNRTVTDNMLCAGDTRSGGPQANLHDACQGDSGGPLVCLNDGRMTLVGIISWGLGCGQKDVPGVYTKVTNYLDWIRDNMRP
Protocol: as §1

[3] = target: T3, uPA (Homo sapiens, UniProt P00749); assay: uPA chromogenic substrate assay (S2444)
T3 construct: uPA (high molecular weight uPA Calbiochem, Cat. 627081); purchased Calbiochem 627081
Protocol: as §1

T1 sequence (P00747 97-580 partner limits assumed): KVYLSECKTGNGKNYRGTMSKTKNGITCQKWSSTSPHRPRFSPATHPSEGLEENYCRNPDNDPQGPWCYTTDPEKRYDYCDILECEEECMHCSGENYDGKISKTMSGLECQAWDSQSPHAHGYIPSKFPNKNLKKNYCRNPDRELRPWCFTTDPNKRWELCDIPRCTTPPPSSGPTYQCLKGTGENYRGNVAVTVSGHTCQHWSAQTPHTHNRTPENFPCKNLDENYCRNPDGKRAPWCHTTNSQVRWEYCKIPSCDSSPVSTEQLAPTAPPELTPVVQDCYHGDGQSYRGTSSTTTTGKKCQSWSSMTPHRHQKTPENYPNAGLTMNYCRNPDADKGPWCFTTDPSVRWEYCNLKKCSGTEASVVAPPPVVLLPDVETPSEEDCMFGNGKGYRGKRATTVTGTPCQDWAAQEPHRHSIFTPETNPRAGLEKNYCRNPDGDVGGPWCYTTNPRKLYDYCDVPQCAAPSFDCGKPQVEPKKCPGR
T1 sequence (P00747 581-810 limits assumed): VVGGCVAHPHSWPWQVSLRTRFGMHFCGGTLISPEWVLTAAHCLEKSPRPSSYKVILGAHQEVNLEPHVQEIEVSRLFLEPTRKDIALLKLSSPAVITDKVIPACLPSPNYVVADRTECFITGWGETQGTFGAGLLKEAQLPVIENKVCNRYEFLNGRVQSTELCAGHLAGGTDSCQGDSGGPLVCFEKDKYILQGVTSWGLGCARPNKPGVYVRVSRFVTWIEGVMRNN

% inhibition ([1]; 100 μM elastase inhibitor, Plasmin (2.5 μg ml-1), 0.66 mM S2251, absorbance at 405 nm): 2%
inhibition of plasmin activity (in words) ([1]; chromogenic substrate assay): did not significantly inhibit
% inhibition ([2]; 100 μM elastase inhibitor, tPA (30 nM), Spectrozyme tPA substrate, 40 μg per ml tPA stimulator, absorbance at 405 nm): 9%
inhibition of tPA activity (in words) ([2]; chromogenic substrate assay): did not significantly inhibit
% inhibition ([3]; 100 μM elastase inhibitor, uPA (5 nM), 0.4 mM S2444, absorbance at 405 nm): 2%
inhibition of uPA activity (in words) ([3]; chromogenic substrate assay): did not significantly inhibit
SMILES: CC(C)[C@H](NC(=O)c1ccc(C(=O)NS(=O)(=O)c2ccc(Br)cc2)cc1)C(=O)N1CCC[C@H]1C(=O)N[C@H](C(=O)C(F)(F)F)C(C)C [elastase inhibitor, 3S-[4-[(4-bromophenyl)sulfonylaminocarbonyl]phenylcarbonyl]-L-valyl-N-[3-(1,1,1-trifluoro-4-methyl-2-oxopentyl)]-L-prolinamide]

From patent US7045280B2, “Assay method” (AstraZeneca AB, priority 1999, dated 2006)
